The target in test [1] is T1, NAD-dependent protein deacetylase sirtuin-7 (Homo sapiens) (UniProt Q9NRC8).
T1 sequence (whole entry): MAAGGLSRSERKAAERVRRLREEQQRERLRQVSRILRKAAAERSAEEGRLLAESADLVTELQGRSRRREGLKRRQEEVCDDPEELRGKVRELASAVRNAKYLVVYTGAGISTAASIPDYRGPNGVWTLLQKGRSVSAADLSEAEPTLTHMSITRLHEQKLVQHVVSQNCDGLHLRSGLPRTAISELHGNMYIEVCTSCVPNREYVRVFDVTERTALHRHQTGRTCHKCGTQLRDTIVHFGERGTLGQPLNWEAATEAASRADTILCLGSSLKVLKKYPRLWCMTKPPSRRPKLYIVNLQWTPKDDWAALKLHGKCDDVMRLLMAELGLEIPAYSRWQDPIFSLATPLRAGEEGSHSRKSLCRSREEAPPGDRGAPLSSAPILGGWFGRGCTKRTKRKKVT
As to the kind of experiment: Substrate activity at human N-terminal His-tagged SIRT7 (68 to 354 residues) expressed in Escherichia coli at 0.5 uM measured after 2 hrs in presence of NAD+ and trypsin by fluorescence assay.

In test [2] the target is NAD-dependent protein deacylase sirtuin-6 (Homo sapiens) (UniProt Q8N6T7). Put plainly: Substrate activity at human N-terminal His-tagged SIRT6 (1 to 355 residues) expressed in Escherichia coli at 0.5 uM measured after 2 hrs in presence of NAD+ and trypsin by fluorescence assay.
Test [3] addresses NAD-dependent protein deacylase sirtuin-5, mitochondrial (Homo sapiens) (UniProt Q9NXA8). As to the kind of experiment: Substrate activity at human N-terminal His-tagged SIRT5 (34 to 302 residues) expressed in Escherichia coli at 0.5 uM measured after 2 hrs in presence of NAD+ and trypsin by fluorescence assay.
Test [4] deals with T2, NAD-dependent protein deacetylase sirtuin-3, mitochondrial (Homo sapiens) (UniProt Q9NTG7).
T2 sequence (whole entry): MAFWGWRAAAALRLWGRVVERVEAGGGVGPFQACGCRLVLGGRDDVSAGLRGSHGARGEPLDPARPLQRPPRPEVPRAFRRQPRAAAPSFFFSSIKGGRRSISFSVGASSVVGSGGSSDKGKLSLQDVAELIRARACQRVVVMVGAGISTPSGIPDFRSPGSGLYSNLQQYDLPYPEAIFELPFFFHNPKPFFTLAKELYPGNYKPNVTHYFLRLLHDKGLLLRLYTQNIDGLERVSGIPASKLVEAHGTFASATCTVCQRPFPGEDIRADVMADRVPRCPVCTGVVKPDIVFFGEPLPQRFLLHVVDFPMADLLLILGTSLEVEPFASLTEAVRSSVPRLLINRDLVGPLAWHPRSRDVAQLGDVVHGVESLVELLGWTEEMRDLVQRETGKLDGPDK
As to the kind of experiment: Substrate activity at human N-terminal His-tagged SIRT3 (122 to 391 residues) expressed in Escherichia coli at 0.5 uM measured after 2 hrs in presence of NAD+ and trypsin by fluorescence assay.

The target of test [5] is T3, NAD-dependent protein deacetylase sirtuin-2 (Homo sapiens) (UniProt Q8IXJ6).
T3 sequence (whole entry): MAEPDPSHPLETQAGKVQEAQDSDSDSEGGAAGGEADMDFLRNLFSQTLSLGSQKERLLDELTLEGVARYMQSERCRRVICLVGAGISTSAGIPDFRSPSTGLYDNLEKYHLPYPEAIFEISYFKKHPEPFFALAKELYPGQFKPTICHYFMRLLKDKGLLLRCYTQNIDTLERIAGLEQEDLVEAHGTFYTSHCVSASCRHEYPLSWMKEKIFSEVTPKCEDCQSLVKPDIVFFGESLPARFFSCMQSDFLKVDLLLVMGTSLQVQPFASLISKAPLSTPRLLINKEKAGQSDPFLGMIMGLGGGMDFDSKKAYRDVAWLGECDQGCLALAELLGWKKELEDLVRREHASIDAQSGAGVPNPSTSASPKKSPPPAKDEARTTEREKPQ
As to the kind of experiment: Substrate activity at human N-terminal His-tagged SIRT2 (56 to 356 residues) expressed in Escherichia coli at 0.5 uM measured after 2 hrs in presence of NAD+ and trypsin by fluorescence assay.

Test [6] has as its target T4, NAD-dependent protein deacetylase sirtuin-1 (Homo sapiens) (UniProt Q96EB6).
T4 sequence (whole entry): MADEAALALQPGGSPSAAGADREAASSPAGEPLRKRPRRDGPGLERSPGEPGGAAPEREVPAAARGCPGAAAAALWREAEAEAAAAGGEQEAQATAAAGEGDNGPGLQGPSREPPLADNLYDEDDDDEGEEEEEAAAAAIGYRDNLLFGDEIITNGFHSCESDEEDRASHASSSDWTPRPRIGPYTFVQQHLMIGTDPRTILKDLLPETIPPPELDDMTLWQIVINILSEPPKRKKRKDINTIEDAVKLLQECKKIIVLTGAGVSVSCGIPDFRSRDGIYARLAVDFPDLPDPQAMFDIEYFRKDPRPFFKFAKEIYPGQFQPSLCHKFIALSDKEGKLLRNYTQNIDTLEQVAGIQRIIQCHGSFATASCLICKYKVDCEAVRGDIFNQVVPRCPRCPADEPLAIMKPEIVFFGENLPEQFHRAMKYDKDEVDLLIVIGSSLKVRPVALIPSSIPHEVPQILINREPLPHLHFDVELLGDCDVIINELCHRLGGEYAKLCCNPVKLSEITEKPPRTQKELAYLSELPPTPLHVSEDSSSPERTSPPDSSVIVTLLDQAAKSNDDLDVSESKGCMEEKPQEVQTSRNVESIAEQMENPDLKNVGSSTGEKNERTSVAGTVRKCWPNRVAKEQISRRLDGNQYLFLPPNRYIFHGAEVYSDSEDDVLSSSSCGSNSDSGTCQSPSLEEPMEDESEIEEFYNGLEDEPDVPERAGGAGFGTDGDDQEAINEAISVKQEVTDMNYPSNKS
Put plainly: Substrate activity at human N-terminal His-tagged SIRT1 (183 to 664 residues) expressed in Escherichia coli at 0.5 uM measured after 2 hrs in presence of NAD+ and trypsin by fluorescence assay.

Test [7] deals with T1, NAD-dependent protein deacetylase sirtuin-7 (Homo sapiens). As to the kind of experiment: Substrate activity at human N-terminal His-tagged SIRT7 (68 to 354 residues) expressed in Escherichia coli at 5 uM measured after 2 hrs in presence of NAD+ and trypsin by fluorescence assay.
Test [8] has as its target NAD-dependent protein deacylase sirtuin-6 (Homo sapiens) (UniProt Q8N6T7). As to the kind of experiment: Substrate activity at human N-terminal His-tagged SIRT6 (1 to 355 residues) expressed in Escherichia coli at 5 uM measured after 2 hrs in presence of NAD+ and trypsin by fluorescence assay.
For test [9], the target named is NAD-dependent protein deacylase sirtuin-5, mitochondrial (Homo sapiens) (UniProt Q9NXA8). Put plainly: Substrate activity at human N-terminal His-tagged SIRT5 (34 to 302 residues) expressed in Escherichia coli at 5 uM measured after 2 hrs in presence of NAD+ and trypsin by fluorescence assay.
In test [10] the target is T2, NAD-dependent protein deacetylase sirtuin-3, mitochondrial (Homo sapiens). Put plainly: Substrate activity at human N-terminal His-tagged SIRT3 (122 to 391 residues) expressed in Escherichia coli at 5 uM measured after 2 hrs in presence of NAD+ and trypsin by fluorescence assay.
In test [11] the target is T3, NAD-dependent protein deacetylase sirtuin-2 (Homo sapiens). As to the kind of experiment: Substrate activity at human N-terminal His-tagged SIRT2 (56 to 356 residues) expressed in Escherichia coli at 5 uM measured after 2 hrs in presence of NAD+ and trypsin by fluorescence assay.
Test [12] addresses T4, NAD-dependent protein deacetylase sirtuin-1 (Homo sapiens). Put plainly: Substrate activity at human N-terminal His-tagged SIRT1 (183 to 664 residues) expressed in Escherichia coli at 5 uM measured after 2 hrs in presence of NAD+ and trypsin by fluorescence assay.
Test [13] concerns the target T1, NAD-dependent protein deacetylase sirtuin-7 (Homo sapiens). Put plainly: Substrate activity at human N-terminal His-tagged SIRT7 (68 to 354 residues) expressed in Escherichia coli at 50 uM measured after 2 hrs in presence of NAD+ and trypsin by fluorescence assay.
For test [14], the target named is NAD-dependent protein deacylase sirtuin-6 (Homo sapiens) (UniProt Q8N6T7). Put plainly: Substrate activity at human N-terminal His-tagged SIRT6 (1 to 355 residues) expressed in Escherichia coli at 50 uM measured after 2 hrs in presence of NAD+ and trypsin by fluorescence assay.
The target in test [15] is NAD-dependent protein deacylase sirtuin-5, mitochondrial (Homo sapiens) (UniProt Q9NXA8). Put plainly: Substrate activity at human N-terminal His-tagged SIRT5 (34 to 302 residues) expressed in Escherichia coli at 50 uM measured after 2 hrs in presence of NAD+ and trypsin by fluorescence assay.
For test [16], the target named is T2, NAD-dependent protein deacetylase sirtuin-3, mitochondrial (Homo sapiens). Put plainly: Substrate activity at human N-terminal His-tagged SIRT3 (122 to 391 residues) expressed in Escherichia coli at 50 uM measured after 2 hrs in presence of NAD+ and trypsin by fluorescence assay.
The target of test [17] is T3, NAD-dependent protein deacetylase sirtuin-2 (Homo sapiens). Put plainly: Substrate activity at human N-terminal His-tagged SIRT2 (56 to 356 residues) expressed in Escherichia coli at 50 uM measured after 2 hrs in presence of NAD+ and trypsin by fluorescence assay.
Test [18] has as its target T4, NAD-dependent protein deacetylase sirtuin-1 (Homo sapiens). Put plainly: Substrate activity at human N-terminal His-tagged SIRT1 (183 to 664 residues) expressed in Escherichia coli at 50 uM measured after 2 hrs in presence of NAD+ and trypsin by fluorescence assay.
The target of test [19] is NAD-dependent protein deacylase sirtuin-5, mitochondrial (Homo sapiens) (UniProt Q9NXA8). Put plainly: Substrate activity at human N-terminal His-tagged SIRT5 (34 to 302 residues) expressed in Escherichia coli at 5 uM measured after 1 hr in presence of NAD+ and trypsin by fluorescence assay.

Activity calls are given as the source filed them. No cut-off for these calls is given here. *1 amine or outer side, *2 acyl side, *3 side chain or, on linkers, in order; H or OH if unused. Where a SMILES comes first, the peptide text is derived from it. The star is where a group is joined. AMC = Cc1cc(=O)oc2cc(N*)ccc12; Suc = O=C(CCC(=O)[*:2])[*:1]; Decanoyl = CCCCCCCCCC(=O)*

Sequence of NAD-dependent protein deacylase sirtuin-5, mitochondrial (Homo sapiens) (Q9NXA8 37-310 limits assumed): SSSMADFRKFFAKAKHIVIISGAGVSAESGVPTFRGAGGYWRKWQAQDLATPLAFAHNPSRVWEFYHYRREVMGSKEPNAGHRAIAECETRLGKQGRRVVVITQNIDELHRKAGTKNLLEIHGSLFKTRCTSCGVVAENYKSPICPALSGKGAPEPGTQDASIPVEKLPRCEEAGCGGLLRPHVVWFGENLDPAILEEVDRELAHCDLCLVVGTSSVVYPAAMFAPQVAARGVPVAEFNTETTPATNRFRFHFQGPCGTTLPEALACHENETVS
Sequence of NAD-dependent protein deacylase sirtuin-6 (Homo sapiens) (Q8N6T7 whole entry, the tested form may be a part): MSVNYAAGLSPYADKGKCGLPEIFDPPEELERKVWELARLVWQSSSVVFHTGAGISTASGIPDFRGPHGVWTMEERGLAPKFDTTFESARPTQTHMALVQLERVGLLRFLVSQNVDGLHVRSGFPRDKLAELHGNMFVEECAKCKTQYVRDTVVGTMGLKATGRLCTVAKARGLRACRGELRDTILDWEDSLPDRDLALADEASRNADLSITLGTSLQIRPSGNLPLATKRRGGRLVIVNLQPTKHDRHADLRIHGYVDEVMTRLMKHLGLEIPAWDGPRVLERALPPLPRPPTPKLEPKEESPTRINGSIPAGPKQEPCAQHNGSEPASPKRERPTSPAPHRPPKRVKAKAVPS

Regarding `CC(=O)N[C@@H](Cc1cnc[nH]1)C(=O)N[C@@H](Cc1ccccc1)C(=O)N[C@@H](CO)C(=O)N[C@@H](CCCCNC(=O)CCC(=O)O)C(=O)Nc1ccc2c(C)cc(=O)oc2c1` (Ac-HFSK(Suc)-{AMC}), the Activity in test [1] amounted to 0.28 RFU; in test [2] it was 0.41 RFU; in [3] it was 1.15 RFU; in [4] it was 0.49 RFU; in test [5] it was 0.16 RFU; in test [6], 0.16 RFU. For the same compound, the Activity worked out at 1.36 RFU in [7]; 0.32 RFU in test [8]; 8.98 RFU in test [9]; 0.55 RFU in [10]; 0.21 RFU in test [11]; 0.36 RFU in test [12]. Also, the Activity in [13] came out at 0.51 RFU; in test [14] it was 0.51 RFU; in test [15] it was 0.71 RFU; in [16] it was 0.89 RFU; in [17] it was 1.03 RFU; in test [18] it was 0.69 RFU. The outcome in test [19] was Active.
As to `CC(=O)N[C@@H](CC(C)C)C(=O)NCC(=O)N[C@@H](CO)C(=O)N[C@@H](CCCCNC(=O)CCC(=O)O)C(=O)Nc1ccc2c(C)cc(=O)oc2c1` (Ac-LGSK(Suc)-{AMC}), the Activity in test [1] was 0.28 RFU; in test [2], 0.41 RFU; in [3], 3.07 RFU; in test [4], 0.5 RFU; in test [5] it was 0.2 RFU; in test [6], 0.2 RFU. Further, the Activity in [7] was determined as 0.32 RFU; in test [8] it was 0.37 RFU; in test [9], 25.1 RFU; in test [10], 0.56 RFU; in [11], 0.21 RFU; in test [12], 0.35 RFU. Further, the Activity in test [13] amounted to 1.14 RFU; in test [14] it was 1.14 RFU; in [15] it was 1.41 RFU; in test [16] it was 1.42 RFU; in test [17] it was 0.9 RFU; in test [18], 0.98 RFU. Moreover, the result in [19] was Active.
Regarding `CC(=O)N[C@@H](CO)C(=O)N[C@@H](CC(C)C)C(=O)NCC(=O)N[C@@H](CCCCNC(=O)CCC(=O)O)C(=O)Nc1ccc2c(C)cc(=O)oc2c1` (Ac-SLGK(Suc)-{AMC}), the Activity came to 0.3 RFU in test [1]; 0.38 RFU in [2]; 3.36 RFU in test [3]; 0.48 RFU in [4]; 0.24 RFU in test [5]; 0.24 RFU in test [6]. Besides, the Activity in test [7] came out at 0.41 RFU; in test [8], 0.37 RFU; in test [9], 21.5 RFU; in test [10], 0.53 RFU; in [11], 0.25 RFU; in test [12] it was 0.44 RFU. In addition, the Activity in test [13] was determined as 1.18 RFU; in test [14], 1.18 RFU; in test [15], 1.5 RFU; in [16], 1.32 RFU; in [17], 1.03 RFU; in test [18] it was 1.05 RFU. Besides, the outcome in test [19] was Active.
As for `CCCCCCCCCC(=O)NCCCC[C@H](NC(=O)[C@H](CCCNC(=N)N)NC(=O)[C@H](CC(C)C)NC(=O)[C@H](CC(=O)O)NC(C)=O)C(=O)Nc1ccc2c(C)cc(=O)oc2c1` (Ac-DLRK(Decanoyl)-{AMC}), the Activity in [1] was 0.34 RFU; in [2], 0.51 RFU; in [3], 0.24 RFU; in test [4] it was 0.4 RFU; in test [5], 0.26 RFU; in test [6] it was 0.26 RFU. The Activity in [7] was 0.3 RFU; in test [8], 0.62 RFU; in test [9] it was 0.36 RFU; in test [10], 0.51 RFU; in test [11] it was 1.03 RFU; in test [12], 0.89 RFU. The Activity in [13] amounted to 1.5 RFU; in test [14], 1.5 RFU; in test [15], 1.54 RFU; in test [16], 1.79 RFU; in test [17] it was 2.6 RFU; in [18] it was 2.28 RFU.

(Values after ChEMBL document CHEMBL4680222, “Sensitive fluorogenic substrates for sirtuin deacylase inhibitor discovery” (Eur J Med Chem, 2020).)
